Source: US9301923B2, “Lipids, lipid compositions, and methods of using them” (NOVARTIS AG, priority 2009, dated 2016)
Values joined by “and” are separate entries in the source; they are usually repeats but may differ in a detail not shown here. Identical values can stand only once. Like-named read-outs stand apart in the source and are kept apart here.

Assays:
[1] = tested on: Factor VII; assay: Factor VII activity assay, in vivo liver delivery of FVII siRNA LNP; set-up: species or system mouse; details: for FVII inhib %: ~48 h
Experimental: Female CD-1 mice are received from Charles River Labs and maintained on standard lab chow and water ad libitum. The animals weigh approximately 25 grams at time of dosing. Formulated siRNA is administered as a single dose at various dose levels intravenously via the lateral tail vein calculated on a (mg siRNAs/kg) basis according to individual animal weights (10 ml/kg injection volume).
Formulated siRNAs are made up of double stranded siRNA sequences specific to a target mRNA sequence, and are in the form of lipid nucleotid particles (LNPs) containing cationic lipids, stealth lipids and neutral lipids, as provided in the Examples below. The siRNA construct for use in targeting the liver is specific to Factor VII. […] FVII siRNA duplex sequence
Formulated Factor VII siRNA is administered as a single dose at various dose levels intravenously via the lateral tail vein calculated on a mg siRNAs/kg basis according to individual animal weights (10 ml/kg injection volume). Approximately 48 h after injection, the mice are euthanized by CO2 inhalation followed by exsanguinations through the vena cava. […] In some cases, small pieces (˜50 mg) of liver are collected and snap frozen in liquid nitrogen for follow up mRNA quantitation.
An assay standard curve is prepared using pooled plasma aliquots from the vehicle control animals.

[2] = pKa of the lipid by TNS fluorescence; format: physicochemical
Experimental: Unless explicitly indicated otherwise, all pKas referred to herein are measured in water at standard temperature and pressure. Also, unless otherwise indicated, all references to pKa are references to pKa measured using the following technique.
2 mM solution of lipid in ethanol are prepared by weighing the lipid and then dissolving in ethanol.
This is done with all eight buffers.
Priority: Column priority • Carriage Speed: Normal • Auto read: Off
The normalized fluorescence intensity vs. pH chart is then plotted in the Microsoft Excel software. The eight points are connected with a smooth line.
The pKa determined using this method is precise to about 0.2 pKa units.

[3] = Particle size and PDI by dynamic light scattering (Malvern Zetasizer); format: physicochemical
Experimental: Unless indicated otherwise, all sizes referred to herein are the average sizes (diameters) of the fully formed nanoparticle, as measured by dynamic light scattering on a Malvern Zetasizer. The nanoparticle sample is diluted in phosphate buffered saline (PBS) so that the count rate is approximately 200-400 kcts. The data is presented as a weighted average of the intensity measure.
The acronym PDI stands for polydispersity index. Unless indicated otherwise, all PDIs referred to herein are the PDI of the fully formed nanoparticle, as measured by dynamic light scattering on a Malvern Zetasizer. The nanoparticle sample is diluted in phosphate buffered saline (PBS) so that the count rate is approximately 200-400 kcts.

[4] = dose 3 mg/kg siRNA i.v., lipid/DSPC/CHOL/AVANTI 880150P 50/28/18/4, N/P 3.43
[5] = dose 3 mg/kg siRNA i.v., lipid/no neutral lipid/CHOL/AVANTI 880150P 50/0/46/4, N/P 3.43
[6] = lipid/DSPC/CHOL/AVANTI 880150P 50/28/18/4, N/P 3.43
[7] = lipid/no neutral lipid/CHOL/AVANTI 880150P 50/0/46/4, N/P 3.43
[8] = dose 1 mg/kg siRNA i.v., lipid/no neutral lipid/CHOL/AVANTI 880150P 50/0/46/4, N/P 3.43

Structure (SMILES)	FVII inhib % [1, 4] [%]	FVII inhib % [1, 5] [%]	pKa ([2]; pKa)	Final size (nm) [3, 6] [nm]	PDI [3, 6]	Final size (nm) [3, 7]	PDI [3, 7]	FVII inhib % ([1]; dose 1 mg/kg siRNA i.v., lipid/DSPC/CHOL/AVANTI 880150P 50/28/18/4, N/P 3.43) [%]	FVII inhib % [1, 8] [%]	in vivo Factor VII inhibition ([1]; formulation containing the cationic lipid, RNAi construct specific to Factor VII, liver) [%]	pKa [2]
CCCCC/C=C\C/C=C\CCCCCCCCOCC(CN1CCCC1)OCCOCCO[C@H]1CC[C@@]2(C)C(=CC[C@H]3[C@@H]4CC[C@H]([C@H](C)CCCC(C)C)[C@@]4(C)CC[C@@H]32)C1 (stereo partly shown) [E0015]	30.7	77.1	7.39	164	0.06	130 nm	0.05				
CCCCC/C=C\C/C=C\CCCCCCCCOCC(CN1CCC2(CC1)OCCO2)OCCOCCO[C@H]1CC[C@@]2(C)C(=CCC3C2CC[C@@]2(C)C3CC[C@@H]2[C@H](C)CCCC(C)C)C1 (stereo partly shown) [E0016]	88.8	59.9	5.85	97	0.175	178 nm	0.206				
CCCCC/C=C\C/C=C\CCCCCCCCOCC(CN1CCCCCC1)OCCOCCO[C@H]1CC[C@@]2(C)C(=CC[C@H]3[C@@H]4CC[C@H]([C@H](C)CCCC(C)C)[C@@]4(C)CC[C@@H]32)C1 (stereo partly shown) [E0017]	98.3	96.5	6.46	106	0.17	97 nm	0.19	53.8			
CCCCC/C=C\C/C=C\CCCCCCCCOCC(CN1CC=CCC1)OCCOCCO[C@H]1CC[C@@]2(C)C(=CCC3C2CC[C@@]2(C)C3CC[C@@H]2[C@H](C)CCCC(C)C)C1 (stereo partly shown) [E0018]	91.8	98	5.9	119	0.095	103 nm and 140 nm	0.113 and 0.13		40.5		
CCCCC/C=C\C/C=C\CCCCCCCCOCC(CN1CCCC[C@@H]1C)OCCOCCO[C@H]1CC[C@@]2(C)C(=CCC3C2CC[C@@]2(C)C3CC[C@@H]2[C@H](C)CCCC(C)C)C1 (stereo partly shown) [E0019]	76.7	85.2	6.75	143	0.065	90.5 nm and 180 nm	0.164 and 0.19		33.7		
CCCCC/C=C\C/C=C\CCCCCCCCOCC(CN1CC[C@@H]2CCCC[C@H]2C1)OCCOCCO[C@H]1CC[C@@]2(C)C(=CCC3C2CC[C@@]2(C)C3CC[C@@H]2[C@H](C)CCCC(C)C)C1 (stereo partly shown) [E0020]	62.4	51.4	6.08	83	0.138	81 nm	0.084				
CCCCC/C=C\C/C=C\CCCCCCCCOCC(CN1CC[C@@H]2CCCC[C@@H]2C1)OCCOCCO[C@H]1CC[C@@]2(C)C(=CCC3C2CC[C@@]2(C)C3CC[C@@H]2[C@H](C)CCCC(C)C)C1 (stereo partly shown) [E0021]	24.5	52.8	5.13	85	0.22	72 nm	0.184				
CCCCC/C=C\C/C=C\CCCCCCCCOCC(CN1CCCC(C)C1)OCCOCCO[C@H]1CC[C@@]2(C)C(=CCC3C2CC[C@@]2(C)C3CC[C@@H]2[C@H](C)CCCC(C)C)C1 (stereo partly shown) [E0023]	59.1	68	5.85	95	0.221	99 nm	0.122				
CCCCC/C=C\C/C=C\CCCCCCCCOCC(CN1CCCCC1)OCCCCO[C@H]1CC[C@@]2(C)C(=CCC3C2CC[C@@]2(C)C3CC[C@@H]2[C@H](C)CCCC(C)C)C1 (stereo partly shown) [E0027]	36.3	30.3	5.7	146	0.311	65 nm	0.15			30.3	5.71
CCCCC/C=C\C/C=C\CCCCCCCCOCC(CN1CCOCC1)OCCCCO[C@H]1CC[C@@]2(C)C(=CCC3C2CC[C@@]2(C)C3CC[C@@H]2[C@H](C)CCCC(C)C)C1 (stereo partly shown) [E0028]	12.5	38.7	4.8	129	0.216	68 nm	0.125				
CCCCC/C=C\C/C=C\CCCCCCCCOCC(CN1Cc2ccccc2C1)OCCOCCO[C@H]1CC[C@@]2(C)C(=CCC3C2CC[C@@]2(C)C3CC[C@@H]2[C@H](C)CCCC(C)C)C1 (stereo partly shown) [E0029]	12.4	−19.1	4.95	137	0.04	113 nm	0.08				
CCCCC/C=C\C/C=C\CCCCCCCCOCC(CN1CCOCCOCCOCC1)OCCOCCO[C@H]1CC[C@@]2(C)C(=CC[C@H]3[C@@H]4CC[C@H]([C@H](C)CCCC(C)C)[C@@]4(C)CC[C@@H]32)C1 (stereo partly shown) [E0030]		12.4	5.38			155 nm	0.08				
CCCCC/C=C\C/C=C\CCCCCCCCOCC(CN1CCSCC1)OCCOCCO[C@H]1CC[C@@]2(C)C(=CCC3C2CC[C@@]2(C)C3CC[C@@H]2[C@H](C)CCCC(C)C)C1 (stereo partly shown) [E0031]	36.7	27.1	4.8	108	0.23	65 nm	0.11				
CCCCC/C=C\C/C=C\CCCCCCCCOCC(CN1CC=CC1)OCCOCCO[C@H]1CC[C@@]2(C)C(=CCC3C2CC[C@@]2(C)C3CC[C@@H]2[C@H](C)CCCC(C)C)C1 (stereo partly shown) [E0032]	64.5	85.5	6.8	87	0.18	63 nm	0.21				
CCCCC/C=C\C/C=C\CCCCCCCCOCC(CN1CCC(OC)C1)OCCCCO[C@H]1CC[C@@]2(C)C(=CCC3C2CC[C@@]2(C)C3CC[C@@H]2[C@H](C)CCCC(C)C)C1 (stereo partly shown) [E0035]	22	66.8	5.93	103	0.2	79 nm	0.21				
CCCCC/C=C\C/C=C\CCCCCCCCOCC(CN1CCCCC1)OC(=O)CCC(=O)O[C@H]1CC[C@@]2(C)C(=CCC3C2CC[C@@]2(C)C3CC[C@@H]2[C@H](C)CCCC(C)C)C1 (stereo partly shown) [E0036]	−47	−23.1	5.74	122	0.12	76 nm	0.24				
CCCCC/C=C\C/C=C\CCCCCCCCOCC(CN1CCC(N(C)C)C1)OCCOCCO[C@H]1CC[C@@]2(C)C(=CC[C@H]3[C@@H]4CC[C@H]([C@H](C)CCCC(C)C)[C@@]4(C)CC[C@@H]32)C1 (stereo partly shown) [E0039]	−6.7	−5.4	5.88	113	0.15	94 nm	0.06				
